Measurements as given in patent publication US20070092546A1, “Thiamin based insect repellant” (Violet Fire, LLC, priority 2005, published 2007).
Structures can show the parent of a compound that is named as a salt. Where two headings read alike, the source gives them in different places.

Legend:
insects = conditions: stated without test data
Text: Thiamin hydrochloride is soluble in water and glycerin and other polyhydric alcohols.

[1] = cited from earlier work
[2] = 100 mg/day consumed over a number of days; cited from earlier work
[3] = tested on: mosquitoes and other biting insects; conditions: ingested doses of up to 100 mg/day for several weeks; cited from earlier work

## Cc1ncc(C[n+]2csc(CCO)c2C)c(N)n1 [Thiamin hydrochloride]
insects
  insect repellant properties: have insect repellant properties
[1]; in organic solvents
  solubility: not readily soluble
[1]; in water and glycerin and other polyhydric alcohols
  solubility: soluble

## Cc1ncc(C[n+]2csc(CCO)c2C)c(N)n1 [thiamin, Thiamin]
[2]
  adverse effects of ingestion: can cause anaphylactic stock, allergic reactions and skin rashes
[3]
  insect repellency on the human skin: will repel mosquitoes and other biting insects from the skin

## Thiamin mononitrate
insects
  insect repellant properties: have insect repellant properties
